Laboratory results published in ChEMBL document CHEMBL1201862, “PubChem BioAssay data set” (2004).
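How tested: cells in 96-well plates exposed to compound for 48 hours at five concentrations. Abbreviation: GI50, concentration required for 50% inhibition of growth.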 Calls of active or inactive are those of the source. Rule as the data show it: active = GI50 up to about 1.1 µM and inactive = higher.

Tests used:
Test in all cases: NCI-60 cell line screen, 48 h
[1] = test system: BT-549
[2] = test system: DU-145
[3] = test system: HCT-116
[4] = test system: HCT-15
[5] = test system: HOP-62
[6] = test system: HT-29
[7] = test system: Hs-578T
[8] = test system: LOX IMVI
[9] = test system: M14
[10] = test system: MCF7
[11] = test system: MDA-MB-231
[12] = test system: NCI-H23
[13] = test system: NCI-H522
[14] = test system: OVCAR-3
[15] = test system: OVCAR-5
[16] = test system: SK-MEL-5
[17] = test system: SNB-19
[18] = test system: SR
[19] = test system: TK-10
[20] = test system: U-251

SMILES	GI50 [1]	GI50 [2]	GI50 [3]	GI50 [4]	GI50 [5]	GI50 [6]	GI50 [7]	GI50 [8]	GI50 [9]	GI50 [10]	GI50 [11]	GI50 [12]	GI50 [13]	GI50 [14]	GI50 [15]	GI50 [16]	GI50 [17]	GI50 [18]	GI50 [19]	GI50 [20]
NC(CC(O)(c1ccccc1)c1ccccc1)c1ccccc1S (stereo not given)	14.7 µM (inactive)	> 10 µM (inactive)	13.2 µM (inactive)	15.2 µM	15.7 µM (inactive)	14.5 µM (inactive)	20.3 µM (inactive)	13.8 µM (inactive)	15.4 µM (inactive)	15.2 µM (inactive)	17.1 µM (inactive)	18.5 µM (inactive)	16.6 µM (inactive)	16 µM (inactive)	15.9 µM (inactive)	13 µM (inactive)	16.4 µM (inactive)	23.6 µM (inactive)	15.7 µM (inactive)	15.1 µM (inactive)
COC(=O)[C@@]12CC[C@]1(C(=O)OC)C1C(C)=CC(=O)O[C@@]12C (stereo not given in full)	> 100 µM (inactive)	> 100 µM (inactive)	> 100 µM (inactive)	> 100 µM	> 100 µM (inactive)	> 100 µM (inactive)	> 100 µM (inactive)	> 100 µM (inactive)	> 100 µM (inactive)	> 100 µM (inactive)	> 100 µM (inactive)	> 100 µM (inactive)	> 100 µM (inactive)	> 100 µM (inactive)	> 100 µM (inactive)	> 100 µM (inactive)	> 100 µM (inactive)	> 100 µM (inactive)	> 100 µM (inactive)	> 100 µM (inactive)
